According to patent US6277859A, “Morphinan derivative and its pharmaceutical applications” (priority 1992, dated 2001):
Structures can show the parent of a compound that is named as a salt.

How the values were obtained:
[1] = biological target: T1, μ receptor (Mus musculus, UniProt P42866); experiment: Ke with naloxone in isolated mouse vas deference preparation; type: cell-based, mouse (male ddy)
T1 construct: The isolated vas deference was filled with Krebes-Henseleit solution; from tissue; host or cells: isolated vas deferens of male ddy mouse
Summary of the method: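 Male ddy mouse vas deferens in Krebs-Henseleit at 37 °C, gassed 95% O2/5% CO2, field-stimulated at 0.1 Hz, 5.0 ms; isometric contractions recorded. Naloxone, NTI or norBNI was added, then test compound cumulatively after about 20 min. Ke = [antagonist]/(IC50 ratio−1), with IC50 ratio taken as IC50 with antagonist over IC50 without.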

[2] = biological target: T2, κ receptor (Mus musculus, UniProt P33534); experiment: Ke with norBNI in isolated mouse vas deference preparation; type: cell-based, mouse (male ddy); conditions: for Ke norBNI: norBNI (κ)
T2 construct: The isolated vas deference was filled with Krebes-Henseleit solution; from tissue; host or cells: isolated vas deferens of male ddy mouse

[3] = biological target: T3, κ receptor (Cavia porcellus, UniProt P41144); experiment: Ke with norBNI in isolated guinea pig preparation; type: cell-based, guinea pig (male Hartley); conditions: guinea pig ileum
T3 construct: from tissue; host or cells: longitudinal muscle of the ileum of male Hartley guinea pig
Experimental: A male Hartley guinea pig was used in this test.
After sacrificing the guinea pig and extracting the ileum, the lumen was washed with nutrient solution and only the longitudinal muscle was isolated. This longitudinal muscle was filled with Krebes-Henseleit solution (NaCl 118 mM; KCl 4.7 mM; CaCl2 2.5 mM; KH2 PO4 1.2 mM; NaHCO3 25 mM; MgSO4 1.2 mM and glucose 10 mM) warmed to 37° C. and suspended in a Magnus tube ventilated with 5% carbon dioxide and 95% oxygen. Electrical stimulus was performed at 0.1 Hz for 5.0 ms by means of ring-shaped platinum electrodes located above and below. Tissue contractions were recorded on a polygraph using an isometric transducer.
(§1) Then after adequately washing with nutrient solution and the contraction reaction stabilized, naloxone, a μ antagonist, or norBNI, a κ […], were added and the test compound was again cumulatively added after roughly 20 minutes. The Ke value was calculated using the following calculation formula from the difference in the efficacies of both agonists.
Ke=[Conc. of added antagonist]/(IC50 ratio-1)
IC50 ratio=IC50 in the presence of antagonist/IC50 in the absence of antagonist

[4] = system: Wistar rats; experiment: Evaluation of diuretic action; type: in vivo, rat (male Wistar); conditions: sc; rat, s.c.; urine output for 5 h after 20 ml/kg saline oral; read-out: ED200, diuretic action (dose giving urine output of 200, non-dosed group = 100)
Summary of the method: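 Male Wistar rats, 7-8 weeks old, received drug s.c. after water deprivation and bladder voiding, then 20 ml/kg saline orally 30 min later. Urine was collected over 5 h in metabolic cages. ED200 and ED500 are doses giving 200 and 500 urine output with the non-dosed group set at 100.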

[5] = biological target: T4, δ receptor (Mus musculus, UniProt P32300); experiment: Ke with NTI in isolated mouse vas deference preparation; type: cell-based, mouse (male ddy); conditions: NTI (δ)
T4 construct: The isolated vas deference was filled with Krebes-Henseleit solution; from tissue; host or cells: isolated vas deferens of male ddy mouse

[6] = system: ddY mice; experiment: animal or person; type: in vivo, mouse (ddY); conditions: sc; mouse, s.c. 15 min before i.p. 0.6% acetic acid; read-out: ED50, acetic acid writhing
Experimental: Analgesic Activity Test Using the Acetic Acid-induced Writhing Method
5 week old ddY mice were used in this test. After intraperitoneal administration of 0.1 ml of 0.6% aqueous acetic acid per 10 g of body weight, the number of writhing reactions that occurred in 10 minutes starting 10 minutes after administration was evaluated for the indicator. The test drug was administered subcutaneously into the backs of the animals 15 minutes before administration of acetic acid.

[7] = system: isolated mouse vas deference; experiment: Opioid activity test using the isolated mouse vas deference preparation (electrically stimulated contractions); type: cell-based, mouse (male ddy); conditions: suppression of electrically stimulated contractions
Experimental: Opioid Activity Test Using the Isolated Mouse Vas Deference Preparation
A male ddy mouse was used in this test. The isolated vas deference was filled with Krebes-Henseleit solution (NaCl 118 mM; KCl 4.7 mM; CaCl2 2.5 mM; KH2 PO4 1.1 mM; NaHCO3 25 mM; and glucose 10 mM) warmed to 37° C. and suspended in a Magnus tube ventilated with 5% carbon dioxide and 95% oxygen. Electrical stimulus was performed at 0.1 Hz for 5.0 ms by means of ring-shaped platinum electrodes located above and below. Tissue contractions were recorded on a polygraph using an isometric transducer.
as §1, with “[…], NTI, a δ […],” for “antagonist,”

T2 sequence (P33534 whole entry): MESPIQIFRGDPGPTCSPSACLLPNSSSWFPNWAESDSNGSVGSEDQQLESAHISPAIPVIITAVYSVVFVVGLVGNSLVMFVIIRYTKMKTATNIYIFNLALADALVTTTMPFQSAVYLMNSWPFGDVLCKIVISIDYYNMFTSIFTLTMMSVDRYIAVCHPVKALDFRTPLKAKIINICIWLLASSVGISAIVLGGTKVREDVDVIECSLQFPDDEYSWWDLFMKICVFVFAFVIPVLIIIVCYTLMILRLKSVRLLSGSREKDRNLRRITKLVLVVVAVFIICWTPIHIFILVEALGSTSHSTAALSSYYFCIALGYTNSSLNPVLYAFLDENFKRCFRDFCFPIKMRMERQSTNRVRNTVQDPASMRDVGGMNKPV
T4 sequence (P32300 whole entry): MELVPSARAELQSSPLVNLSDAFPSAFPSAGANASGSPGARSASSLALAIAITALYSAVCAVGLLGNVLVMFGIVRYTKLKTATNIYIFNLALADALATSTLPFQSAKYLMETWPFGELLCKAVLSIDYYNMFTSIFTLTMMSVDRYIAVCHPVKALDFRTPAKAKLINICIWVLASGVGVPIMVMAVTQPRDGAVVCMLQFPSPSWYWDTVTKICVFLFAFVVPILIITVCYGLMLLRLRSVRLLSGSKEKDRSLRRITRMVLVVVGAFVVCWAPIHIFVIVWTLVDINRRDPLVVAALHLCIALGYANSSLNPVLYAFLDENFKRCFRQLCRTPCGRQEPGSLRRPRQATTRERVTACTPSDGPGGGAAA
T1 sequence (P42866 whole entry): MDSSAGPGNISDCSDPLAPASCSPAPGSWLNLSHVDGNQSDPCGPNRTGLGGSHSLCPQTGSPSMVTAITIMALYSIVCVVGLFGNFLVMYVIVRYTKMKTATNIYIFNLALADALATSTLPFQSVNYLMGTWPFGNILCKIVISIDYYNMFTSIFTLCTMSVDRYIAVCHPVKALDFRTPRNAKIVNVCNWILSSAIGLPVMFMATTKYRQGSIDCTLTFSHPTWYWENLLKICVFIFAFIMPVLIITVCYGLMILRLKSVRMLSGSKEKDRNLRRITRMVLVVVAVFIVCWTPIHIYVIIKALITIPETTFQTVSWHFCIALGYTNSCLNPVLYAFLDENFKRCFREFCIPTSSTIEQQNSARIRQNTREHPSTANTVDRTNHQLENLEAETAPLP
T3 sequence (P41144 whole entry): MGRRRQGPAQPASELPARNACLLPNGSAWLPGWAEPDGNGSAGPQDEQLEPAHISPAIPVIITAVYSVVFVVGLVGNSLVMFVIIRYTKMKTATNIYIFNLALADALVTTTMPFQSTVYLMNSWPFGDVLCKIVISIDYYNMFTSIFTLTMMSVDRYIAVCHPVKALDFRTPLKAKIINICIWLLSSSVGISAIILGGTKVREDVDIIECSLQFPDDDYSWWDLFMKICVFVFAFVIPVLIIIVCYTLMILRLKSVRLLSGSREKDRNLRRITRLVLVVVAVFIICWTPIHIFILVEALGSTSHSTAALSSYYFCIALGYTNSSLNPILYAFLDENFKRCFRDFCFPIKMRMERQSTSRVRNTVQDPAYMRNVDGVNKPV

Structure (SMILES) | Ke Naloxone [1] [nM] | selective agonist for κ receptors (in words) [2] | Ke norBNI [2] [nM] | Ke norBNI [3] [nM] | ED200 [4] [µg/kg] | Ke NTI [5] [nM] | ED50 [6] [µg/kg] | IC50 [7] [nM]
CN(C(=O)Cc1ccc(Cl)c(Cl)c1)[C@H]1CC[C@@]2(O)[C@H]3Cc4ccc(O)c5c4[C@@]2(CCN3CC2CC2)[C@H]1O5 [Compound 1, 17-cyclopropylmethyl-4,5α-epoxy-3,14β-dihydroxy-6α-(N-methyl-3,4-dichlorophenylacetamido)morphinan.hydrochloride] | 53 | selective agonists for κ receptors | 0.548 | 0.16 | 2.7 | 17.3 |  | 
COc1cccc(/C=C/C(=O)N(C)[C@@H]2CC[C@@]3(O)[C@H]4Cc5ccc(O)c6c5[C@@]3(CCN4CC3CC3)[C@H]2O6)c1 [Compound 63] | 60.9 | selective agonists for κ receptors | 1.60 |  | 3.8 | 96.9 | 1.1 | 0.746
